Measurements reported in patent publication US20070004653A1, “Stable lyophilized anthracycline glycosides” (priority 2005, published 2007).

How the values were obtained:
[1] = cited from earlier work
[2] = Purification of Epirubicin HCl: solution warmed to 60° C., dimer and aglycone; format: physicochemical; conditions: for dimer content / epirubicin aglycone: cooled to 50-60° C.
Procedure: Epirubicin hydrochloride (1550 mg) (containing epirubicin aglycone 0.04% and dimer 0.8%) was dissolved in water (100 ml) and the pH was corrected to 3.2-3.8 with hydrochloric acid at room temperature. The solution was then warmed in about ½ hour to 60° C.-65° C. and then maintained at tis temperature for 1 hour and then the solution was cooled to 50-60° C. At the same time, the pH was corrected to 4.5-5.0 with sodium hydroxide (at this point epirubicin aglycone was about 0,10% and dimer content<0,10%). Then the solution was quickly transferred to a cold container.
Epirubicin hydrochloride (1550 mg) (containing epirubicin aglycone 0.04% and dimer 0.8%) was dissolved in water (100 ml) and the pH corrected to 3.2-3.8 with hydrochloric acid at room temperature (by means of 30 microliters of a 1 M aqueous solution). The solution was quickly warmed (in less than ½ hour) to 60° C.-65° C. and then maintained at this temperature for 45 minutes and then the solution was cooled to 50-60° C. At the same time, the pH was corrected to 4.5-5.0 with AMBERLITE® IRA-67 free base (0,18 ml of resin 1,6M) (at this point epirubicin aglycone was about 0,09% and dimer content<0,10%). Then the solution was quickly filtered and then transferred into a cold container.

[3] = cited from earlier work; remark: listed apart in the source
[4] = Preparation of stable lyophilized anthracycline glycoside hydrochlorides: aglycone and dimer in the lyophilized product; format: physicochemical
Procedure: Idarubicin hydrochloride (500 mg) was dissolved in water (50 ml) and acetic acid and ammonium acetate (both 1.5% molar amount with respect to the molar amount of idarubicin hydrochloride) were added. The solution was frozen and lyophilized.
Idarubicin hydrochloride (500 mg) was dissolved in water (50 ml) and acetic acid and ammonium acetate (both 1.5% molar amount with respect to the molar amount of idarubicin hydrochloride) were added. Charcoal was then added (100 g) and the solution was stirred for two hours. After that, the suspension was filtered through 0.4 micron membrane and then the solution was frozen and lyophilized.
Doxorubicin hydrochloride (500 mg) was dissolved in water (20 ml) and the pH corrected to 3.5 with acetic acid at room temperature. The solution was then warmed to 60° C. for 2 hours and then ammonium acetate (1.5% molar amount with respect to the molar amount of doxorubicin hydrochloride) was added. Then the solution was quickly frozen and lyophilized.
Epirubicin hydrochloride (1550 mg) was dissolved in water (100 ml) and the pH corrected to 3.2-3.8 with hydrochloric acid at room temperature. The solution was then warmed to 60° C.-65° C. for 1 hours and then the solution was cooled to 50-60° C. At the same time, the pH was corrected to 4.5-5.0 with sodium hydroxide. Then the solution was quickly frozen and lyophilized.
Idarubicin hydrochloride (5.0 g) was dissolved in water (500 ml). Then 58 microlitres of AMBERLITE® IRA-67 (1.6M) acetate (meaning 1.0% molar amount with respect to the molar amount of idarubicin hydrochloride) and 4.5 mg of acetic acid (meaning 0.8% molar amount with respect to the molar amount of idarubicin hydrochloride) were added. The suspension was slurried for two hours, then filtered, frozen and lyophilized.
Doxorubicin hydrochloride (5.0 g) was dissolved in water (200 ml) and the pH corrected to 4.6-4.8 with IN hydrochloric acid at room temperature. Then 80 microlitres of AMBERLITE® IRA-67 (1.6M) acetate (meaning 1.5% molar amount with respect to the molar amount of doxorubicin hydrochloride) was added. The solution was then filtered, frozen and lyophilized.
Epirubicin hydrochloride (1550 mg) was dissolved in water (100 ml) and the pH corrected to 3.2-3.8 with hydrochloric acid at room temperature. The solution was warmed to 60° C.-65° C. for 1 hour and then the solution was cooled to 50-60° C. At the same time, the pH was corrected to 4.5-5.0 with AMBERLITE® IRA-67 free base. Then the solution was quickly filtered, frozen, and lyophilized.

[5] = Example 36: 1550 mg in water (100 ml), t = 0, pH 3.6, 20° C.
[6] = Example 36: after 1 hour at 60° C.-65° C., pH corrected to 4.5-5.0 with sodium hydroxide
[7] = Example 36: final, pH 4.8 (sodium hydroxide), 10° C.
[8] = Example 37: 1550 mg in water (100 ml), t = 0, pH 3.6, 20° C.
[9] = Example 37: Final, pH 4.7 (AMBERLITE IRA-67 free base), 10° C.
[10] = Example 37: after 45 minutes at 60° C.-65° C., pH corrected to 4.5-5.0 with AMBERLITE IRA-67 free base
[11] = starting Epirubicin hydrochloride (1550 mg) before dissolving
[12] = Example 41: pH 3.2-3.8, 60° C.-65° C. for 1 hour, pH 4.5-5.0 with sodium hydroxide, frozen and lyophilized
[13] = Example 44: pH 3.2-3.8, 60° C.-65° C. for 1 hour, pH 4.5-5.0 with AMBERLITE IRA-67 free base, filtered, frozen, lyophilized

For `COc1cccc2c1C(=O)c1c(O)c3c(c(O)c1C2=O)C[C@@](O)(C(=O)CO)C[C@@H]3O[C@H]1CC(N)[C@@H](O)C(C)O1.Cl` (stereo in doubt) [Epirubicin HCl, epirubicin hydrochloride], the pKa in water [1] is given as 7.7, the “% aglycone” value [2, 5] is given as 0.04% and the “% dimer content” value [2, 5] is given as 0.80%. For the same compound, the “% aglycone” value ([2]; Example 36: 15 min, 60° C.) was 0.06%, the “% dimer content” value ([2]; Example 36: 15 min, 60° C.) was 0.38% and the “% aglycone” value ([2]; Example 36: 30 min, 60° C.) was 0.07%. For the same compound, the “% dimer content” value ([2]; Example 36: 30 min, 60° C.) was 0.18%, the “% aglycone” value ([2]; Example 36: 45 min, 60° C.) was 0.09% and the “% dimer content” value ([2]; Example 36: 45 min, 60° C.) was 0.11%. The “% aglycone” value ([2]; Example 36: 60 min, 60° C.) was 0.11%, the “% dimer content” value ([2]; Example 36: 60 min, 60° C.) was 0.08% and the “% aglycone” value ([2]; Example 36: T = 0, 60° C.) was 0.04%. The “% dimer content” value ([2]; Example 36: T = 0, 60° C.) was 0.74%, the dimer content [2, 6] was < 0,10% and the epirubicin aglycone [2, 6] was “about 0,10%”. The “% aglycone” value [2, 7] was 0.11%, the “% dimer content” value [2, 7] was 0.08% and the “% aglycone” value [2, 8] was 0.04%. For the same compound, the “% dimer content” value [2, 8] was 0.80%, the “% aglycone” value ([2]; Example 37: 10 min, 60° C.) was 0.05% and the “% dimer content” value ([2]; Example 37: 10 min, 60° C.) was 0.38%. For the same compound, the “% aglycone” value ([2]; Example 37: 20 min, 60° C.) was 0.07%, the “% dimer content” value ([2]; Example 37: 20 min, 60° C.) was 0.18% and the “% aglycone” value ([2]; Example 37: 30 min, 60° C.) was 0.09%. For the same compound, the “% dimer content” value ([2]; Example 37: 30 min, 60° C.) was 0.11%, the “% aglycone” value ([2]; Example 37: 40 min, 60° C.) was 0.10% and the “% dimer content” value ([2]; Example 37: 40 min, 60° C.) was 0.08%. For the same compound, the “% aglycone” value [2, 9] was 0.10%, the “% dimer content” value [2, 9] was 0.08% and the “% aglycone” value ([2]; Example 37: T = 0, 60° C.) was 0.05%. The “% dimer content” value ([2]; Example 37: T = 0, 60° C.) was 0.76%, the dimer content [2, 10] was < 0,10% and the epirubicin aglycone [2, 10] was “about 0,09%”. The dimer contained [2, 11] was 0.8%, the epirubicin aglycone contained [2, 11] was 0.04% and the “pH in a 0.5% w/v solution in water” value [3] was 4-5.5. The “aglycone contained in lyophilized product” value [4, 12] was 0.12%, the “dimer contained in lyophilized product” value [4, 12] was 0.1% and the “aglycone contained in lyophilized product” value [4, 13] was 0.10%. For the same compound, the “dimer contained in lyophilized product” value [4, 13] was 0.10%.
